Measured values published in patent US10106571B2, “HCV polymerase inhibitors” (priority 2013, dated 2018).
Where two headings read alike, the source gives them in different places.

Key:
[1] = tested on: HCV type 1b replicon (Huh-7 luc/neo, Huh-Luc); experiment: Replicon assay, Huh-Luc cells with HCV type 1b replicon (stable), luciferase readout; type: cell-based; conditions: Huh-Luc HCV 1b replicon, three days incubation, luciferase activity, read-out: EC50
Source text: The compounds of formula I may be examined for activity in the inhibition of HCV RNA replication in a cellular assay aimed at identifying compounds that inhibit a HCV functional cellular replicating cell line, also known as HCV replicons. A suitable cellular assay is based on a bicistronic expression construct, as described by Lohmann et al. (1999), Science vol. 285 pp. 110-113 with modifications described by Krieger et al. (2001), Journal of Virology 75: 4614-4624, in a multi-target screening strategy.
The assay utilizes the stably transfected cell line Huh-7 luc/neo (hereafter referred to as Huh-Luc). This cell line harbors an RNA encoding a bicistronic expression construct comprising the wild type NS3-NS5B regions of HCV type 1b translated from an Internal Ribosome Entry Site (IRES) from encephalomyocarditis virus (EMCV), preceded by a reporter portion (FfL-luciferase), and a selectable marker portion (neo^R, neomycine phosphotransferase). The construct is bordered by 5′ and 3′ NTRs (non-translated regions) from HCV type 1b. Continued culture of the replicon cells in the presence of G418 (neo^R) is dependent on the replication of the HCV RNA. The stably transfected replicon cells that express HCV RNA, which replicates autonomously and to high levels, encoding inter alia luciferase, are used for screening the antiviral compounds.
The replicon cells are plated in 384 well plates in the presence of the test and control compounds which are added in various concentrations. Following an incubation of three days, HCV replication is measured by assaying luciferase activity (using standard luciferase assay substrates and reagents and a Perkin Elmer ViewLux™ ultraHTS microplate imager). Replicon cells in the control cultures have high luciferase expression in the absence of any inhibitor. The inhibitory activity of a compound on luciferase activity is monitored on the Huh-Luc cells, enabling a dose-response curve for each test compound. EC50 values are then calculated, which value represents the amount of the compound required to decrease the level of detected luciferase activity by 50%, or more specifically, the ability of the genetically linked HCV replicon RNA to replicate.

HCV NS5B-21 = HCV NS5B-21 (Hepatitis C virus genotype 1b (isolate Con1) (HCV), UniProt Q9WMX2); experiment: Enzyme assay, HCV NS5B-21 SPA (scintillation proximity assay); type: biochemical; conditions: triphosphates
Protocol: It is this triphosphate which is believed to be the antivirally active species. The enzyme assay described here may be used to confirm that compounds of the invention are antivirally active as the 5′-triphosphate metabolite.
The enzyme assay measures the inhibitory effect of triphosphate compounds in an HCV NS5B-21 (21-amino acid C-terminally truncated version) SPA assay (scintillation proximity assay). The assay is performed by evaluating the amount of radiolabelled ATP incorporated by HCV NS5B-21 into newly synthesized RNA using an heterogeneous biotinylated RNA template.
To determine IC50 values the compounds are tested at various concentrations in a final volume of 100 μl of reaction mixture. The reaction is stopped by addition of 0.5M EDTA solution.
The samples are transferred into flashplates precoated with streptavidin. The incorporated radioactivity is quantified using a scintillation counter (Wallac Microbeta Trilux).
The assay should include enzyme controls (about four, containing 1 μl DMSO instead of inhibitor) and background control containing all ingredients except template.
Compounds are serially diluted in DMSO on a separate dilution plate to 100× the final desired assay concentrations. […]
Incubate the plate over night and read the flash plate in the Microbeta Trilux using the protocol Flash plates H3. […]
IC50 is determined using Graphpad Prism. […]

Row | Compound | EC50 ([1]; Hepatitis C virus, Huh-7, 72 h) [nM] | further results
1 | CCCOC(=O)[C@H](C)NP(=O)(OC[C@H]1O[C@@H](n2ccc(=O)[nH]c2=O)[C@@](F)(Cl)[C@@H]1O)Oc1ccccc1 (stereo partly drawn) [Example 14] | 76 | 
2 | CCCCOC(=O)[C@H](C)NP(=O)(OC[C@H]1O[C@@H](n2ccc(=O)[nH]c2=O)[C@@](F)(Cl)[C@@H]1O)Oc1ccccc1 (stereo partly drawn) [Example 8] | 44 | 
3 | COc1ccc(OP(=O)(N[C@@H](C)C(=O)OC(C)C)OC[C@H]2O[C@@H](n3ccc(=O)[nH]c3=O)[C@@](F)(Cl)[C@@H]2O)cc1 (stereo partly drawn) [Example 11] | 150 | 
4 | CC(C)OC(=O)[C@H](C)NP(=O)(OC[C@H]1O[C@@H](n2ccc(=O)[nH]c2=O)[C@@](F)(Cl)[C@@H]1O)Oc1cccc(C2(C)CC2)c1 (stereo partly drawn) [Example 16] | 91 | 
5 | CC(C)OC(=O)[C@H](C)NP(=O)(OC[C@H]1O[C@@H](n2ccc(N)nc2=O)[C@@](F)(Cl)[C@@H]1O)Oc1ccccc1 (stereo partly drawn) [Example 26, (2S)-Isopropyl 2-(((((2R,3R,4S,5R)-5-(4-amino-2-oxopyrimidin-1(2H)-yl)-4-chloro-4-fluoro-3-hydroxytetrahydrofuran-2-yl)methoxy)(phenoxy)phosphoryl)amino)propanoate] | 86 | 
6 | COC[C@@H](C)OC(=O)[C@H](C)NP(=O)(OC[C@H]1O[C@@H](n2ccc(=O)[nH]c2=O)[C@@](F)(Cl)[C@@H]1O)Oc1ccccc1 (stereo partly drawn) [Example 20] | 65 | 
7 | COCC(COC)OC(=O)[C@H](C)NP(=O)(OC[C@H]1O[C@@H](n2ccc(=O)[nH]c2=O)[C@@](F)(Cl)[C@@H]1O)Oc1ccccc1 (stereo partly drawn) [Example 21] | 210 | 
8 | CC(C)OC(=O)[C@H](C)NP(=O)(OC[C@H]1O[C@@H](n2ccc(=O)[nH]c2=O)[C@@](F)(Cl)[C@@H]1O)Oc1cccc(C2CC2)c1 (stereo partly drawn) [Example 12] | 180 | 
9 | CC(C)OC(=O)[C@H](C)NP(=O)(OC[C@H]1O[C@@H](n2ccc(=O)[nH]c2=O)[C@@](F)(Cl)[C@@H]1O)Oc1cccc(C2CCC2)c1 (stereo partly drawn) [Example 15] | 90 | 
10 | CC(C)OC(=O)[C@H](C)NP(=O)(OC[C@H]1O[C@@H](n2ccc(=O)[nH]c2=O)[C@@](F)(Cl)[C@@H]1O)Oc1ccccc1 (stereo partly drawn) [Example 23] |  | EC50 [1]: 5100 nM
11 | CC[C@H](C)OC(=O)[C@H](C)NP(=O)(OC[C@H]1O[C@@H](n2ccc(=O)[nH]c2=O)[C@@](F)(Cl)[C@@H]1O)Oc1ccccc1 (stereo partly drawn) [Example 13] | 61 | 
12 | CC(C)OC(=O)[C@H](C)NP(=O)(OC[C@H]1O[C@@H](n2ccc(=O)[nH]c2=O)[C@@](F)(Cl)[C@@H]1O)Oc1cccc2ncccc12 (stereo partly drawn) [Example 24] | 1400 | 
13 | O=c1ccn([C@@H]2O[C@H](COP(=O)(O)OP(=O)(O)OP(=O)(O)O)[C@@H](O)[C@]2(F)Cl)c(=O)[nH]1 [Example 3, Lithium ((2R,3R,4 S,5R)-4-chloro-5-(2,4-dioxo-3,4-dihydropyrimidin-1(2H)-yl)-4-fluoro-3-hydroxytetrahydrofuran-2-yl)methyl triphosphate] |  | IC50 (HCV NS5B-21): 720 nM
14 | COc1ccccc1OP(=O)(N[C@@H](C)C(=O)OC(C)C)OC[C@H]1O[C@@H](n2ccc(=O)[nH]c2=O)[C@@](F)(Cl)[C@@H]1O (stereo partly drawn) [Example 10] | 45 | 
15 | CC(C)OC(=O)[C@H](C)NP(=O)(OC[C@H]1O[C@@H](n2ccc(=O)[nH]c2=O)[C@@](F)(Cl)[C@@H]1O)Oc1ccc(C2(C)CC2)cc1 (stereo partly drawn) [Example 17] | 110 | 
16 | COC[C@H](C)OC(=O)[C@H](C)NP(=O)(OC[C@H]1O[C@@H](n2ccc(=O)[nH]c2=O)[C@@](F)(Cl)[C@@H]1O)Oc1ccccc1 (stereo partly drawn) [Example 25] | 100 | 
17 | O=c1ccn([C@@H]2O[C@H](CO)[C@@H](O)[C@]2(F)Cl)c(=O)[nH]1 [Example 1, 1-((2R,3S,4R,5R)-3-chloro-3-fluoro-4-hydroxy-5-(hydroxymethyl)tetrahydrofuran-2-yl)pyrimidine-2,4(1H,3H)-dione] | > 50000 | 
18 | CCC(CC)COC(=O)[C@H](C)NP(=O)(OC[C@H]1O[C@@H](n2ccc(=O)[nH]c2=O)[C@@](F)(Cl)[C@@H]1O)Oc1ccccc1 (stereo partly drawn) [Example 7] | 55 | 
19 | CC(C)OC(=O)[C@H](C)NP(=O)(OC[C@H]1O[C@@H](n2ccc(=O)[nH]c2=O)[C@@](F)(Cl)[C@@H]1O)Oc1ccc2c(c1)OCO2 (stereo partly drawn) [Example 9] | 190 | 
20 | Nc1ccn([C@@H]2O[C@H](COP(=O)(O)OP(=O)(O)OP(=O)(O)O)[C@@H](O)[C@]2(F)Cl)c(=O)n1 [Example 27, (((2R,3R,4 S, 5R)-5-(4-amino-2-oxopyrimidin-1(2H)-yl)-4-chloro-4-fluoro-3-hydroxytetrahydrofuran-2-yl)methyl)triphosphoric acid] |  | IC50 (HCV NS5B-21): 89 nM
21 | CCC(CC)OC(=O)[C@H](C)NP(=O)(OC[C@H]1O[C@@H](n2ccc(=O)[nH]c2=O)[C@@](F)(Cl)[C@@H]1O)Oc1ccccc1 (stereo partly drawn) [Example 22] | 58 | 
22 | C[C@H](NP(=O)(OC[C@H]1O[C@@H](n2ccc(=O)[nH]c2=O)[C@@](F)(Cl)[C@@H]1O)Oc1ccccc1)C(=O)OC1CCCCC1 (stereo partly drawn) [Example 4, (2S)-cyclohexyl 2-(((((2R,3R,4S,5R)-4-chloro-5-(2,4-dioxo-3,4-dihydropyrimidin-1(2H)-yl)-4-fluoro-3-hydroxytetrahydrofuran-2-yl)methoxy)(phenoxy)phosphoryl)amino)propanoate] | 90 | 
23 | CCOC(=O)[C@H](C)NP(=O)(OC[C@H]1O[C@@H](n2ccc(=O)[nH]c2=O)[C@@](F)(Cl)[C@@H]1O)Oc1ccccc1 (stereo partly drawn) [Example 6] | 79 | 
24 | CC[C@@H](C)OC(=O)[C@H](C)NP(=O)(OC[C@H]1O[C@@H](n2ccc(=O)[nH]c2=O)[C@@](F)(Cl)[C@@H]1O)Oc1ccccc1 (stereo partly drawn) [Example 5] | 43 | 
